Experimental data: US9340543B2, “Helquat derivatives, preparation thereof, and use thereof as medicaments” (USTAV ORGANICKE CHEMIE A BIOCHEMIE AKADEMIE VED CR, V.V.I., priority 2013, dated 2016)
Where a name gives a salt, the structure may show the parent alone.

Experiments:
[1] = tested on: LoVo; test: CellTiter-Glo luminescent cell viability assay (ATP quantification), LoVo; assay type: cell-based; settings: Homo sapiens, LoVo; colorectal carcinoma cells, 72 h treatment, viable cells by ATP luminescence; class symbols
Protocol: (§1) Influence of the test compounds on viability (proliferation) of cell lines used was investigated in concentration range 0-100 μmol·l^−1.
(§2) Adherent cell line LoVo is a permanent in vitro culture derived from tissue of a patient with colorectal carcinoma. LoVo cell line was cultivated in DMEM medium (Sigma-Aldrich, cat. no. D8437) with addition of 2 mmol·l^−1 glutamine (Invitrogen, see above), 10% fetal bovine serum (FBS, Sigma-Aldrich, see above), 100 IU/ml peniciline, 100 μg/ml streptomycine (Sigma-Aldrich, see above). Passaging was performed twice a week. After washing of cells with sterile PBS, the cells were released by 0.25% trypsin/EDTA (Sigma-Aldrich, see above) at 37° C. for 2 minutes. The trypsin was inactivated by addition of 2 volumes of complete medium, cells were then centrifuged (250×g, 5 min), resuspended, and transferred in the amount needed into a new cultivation bottle with fresh medium. Population doubling time of LoVo cell line was 39 h under the cultivation conditions used.
(§3) In order to test the sensitivity of the cell lines towards the studied helquats, cytotoxity test for cell viability assessment based on ATP quantification in cell lysates was used (CellTiter-Glo® Luminescent Cell Viability Assay, Promega, cat. no. G7571). In this test, ATP in cell lysates is detected using luciferase reaction. Luminescence intensity correlates with the ATP level and thus with quantity of metabolically active (viable) cells. IC50 value serves as the output, that is the concentration of the test compound which leads to 50% reduction in number of viable cells as compared to control, untreated population. To this end, IC50 value reflects efficiency of the test compound with regard to the given cell line.
(§4) Cells in the exponential growth phase were seeded into a 96-well microtiter plate were plated at 3000 cells per well. Each well contained 90 μl of cell suspension. The next day, 10 μl of 10× concentrated test compound solutions were added. The effect of helquats was investigated in concentration range 1 to 100 μmol·l^−1 (e.g. 1; 2.5; 5; 7.5; 10; 15; 25; 50 and 100 μmol·l^−1). Apart from the section containing the concentration series of the test compound, each well contained 2 control columns, the first with pure medium (so called blank) and the second with cells in medium without the test compounds (control). Into wells containing controls and blanks, volume of solvent (water) equal to the volume of added compound solutions was added. After 72 h of incubation with the test compounds viability was determined according to the manufacturer's instructions. In short: microtiter well plate was left 30 min to reach the room temperature after it has been removed from the incubator. Then, into each well, 100 μl of the prepared detection agent was added. Next, the well plate was shaken for 2 min to complete the full lysis. Next, after the well had been left in the dark for 15 min, the luminescence was measured in each well using luminometer (Tecan Genios, Austria).
(§5) IC50 value represents concentration of the test compound, which leads to 50% reduction of viable cells (inhibition of cell growth) after 72 h of the treatment. Each helquat concentration was tested in triplicates in a IC50 quantification and at least 3 independent IC50 quantification experiments were performed. IC50 values over 100 μmol·l^−1 were obtained by extrapolation of data measured in concentration range 0-100 μmol·l^−1 for the given helquat.

[2] = tested on: HUVEC; test: CellTiter-Glo luminescent cell viability assay (ATP quantification), HUVEC normal cells; assay type: cell-based, human; settings: 72 h treatment
Protocol: as §1
Normal human endothelial cells from umbilical vein are adherent cells cultivated in plastic Petri dishes coated with collagen I. Into the cultivation medium (E-STIM™; BD Biosciences, cat. co. 355054) already containing 2% FBS (fetal bovine serum), hydrocortisone and heparin the following two further ingredients were added: epidermal growth factor (EGF, 5 μg) and mixture of factors facilitating growth of endothelial cells (ECGS, 100 mg). […] The cells were passaged after reaching 90% confluency by dissociation using 0.25% solution of trypsin/EDTA (1 ml; 3 min; 37° C.). After that 5 ml of complete cultivation medium E-STIM™ was added and the cells were centrifuged (180×g, 7 min), the pellet was resuspended, and transferred in the amount needed into a new Petri dish with fresh medium. The cells were used in experiments between the 3rd and the 8th passage after defreezing. Population doubling time of HUVEC cell line was 38 h under the cultivation conditions used.
as §3, §4, §5

[3] = tested on: CCRF-CEM; test: CellTiter-Glo luminescent cell viability assay (ATP quantification), CCRF-CEM; assay type: cell-based; settings: acute lymphoblastic leukemia cells, 72 h treatment, viable cells by ATP luminescence
Protocol: as §1
Suspension cell line CCRF-CEM is a permanent in vitro culture of acute lymphoblastic leukemia. CCRF-CEM cell line was cultivated in RPMI 1640 medium (Sigma-Aldrich, cat. no. R8758) with addition of 2 mmol·l^−1 glutamine (Invitrogen, cat. no. 35050-038), 10% fetal bovine serum (FBS, Sigma-Aldrich, cat. no. F9665), 100 IU/ml peniciline, 100 μg/ml streptomycine (Sigma-Aldrich, cat. no. P0781). Passaging was performed 2-3× a week. Population doubling time of CCRF-CEM cell line was 20 h under the cultivation conditions used.
as §3, §4, §5

[4] = tested on: Hep G2; test: CellTiter-Glo luminescent cell viability assay (ATP quantification), Hep G2; assay type: cell-based; settings: Homo sapiens, HepG2; hepatocellular carcinoma cells, 72 h treatment, viable cells by ATP luminescence
Protocol: as §1
as §2, with “Hep G2” for “LoVo”, “from liver” for “from”, “hepatocellular” for “colorectal”, “M4528)” for “D8437)”, “28” for “39”
as §3
as §4, with “In short: microtiter well plate was left 30 min to reach the room temperature after it has been removed from the incubator. Then, into each well, 100 μl of the prepared detection agent was added. Next, the well plate was shaken for 2 min to complete the full lysis.” left out, “Austria). […]” for “Austria).”

[5] = tested on: HeLa; test: CellTiter-Glo luminescent cell viability assay (ATP quantification), HeLa; assay type: cell-based; settings: cervical cancer cells, 72 h treatment, viable cells by ATP luminescence
Protocol: as §1
Adherent cell line HeLa is a permanent in vitro culture derived from cervical cancer. HeLa cell line was cultivated in RPMI 1640 medium (Dutch modification) (Sigma-Aldrich, cat. no. R7638) with addition of 2 mmol·l^−1 glutamine (Invitrogen, see above), 10% fetal bovine serum (FBS, Sigma-Aldrich, see above), 100 IU/ml peniciline, 100 μg/ml streptomycine (Sigma-Aldrich, see above). Passaging was performed twice a week. After washing of cells with sterile PBS the cells were released by 0.25% trypsin/EDTA (Sigma-Aldrich, cat. no. T4049) at 37° C. for 2 minutes. The trypsin was inactivated by addition of 2 volumes of complete medium, cells were then centrifuged (250×g, 5 min), the cell pellet was resuspended, and transferred in the amount needed into a new cultivation bottle with fresh medium. Population doubling time of […] cell line was 25 h under the cultivation conditions used.
as §3, §4, §5

[6] = tested on: NHDF-Ad; test: CellTiter-Glo luminescent cell viability assay (ATP quantification), NHDF-Ad normal cells; assay type: cell-based; settings: normal human dermal fibroblasts, 72 h treatment
Description: as §1
Normal human dermal fibroblasts were cultivated without antibiotics in basal medium for fibroblasts (ATCC/LGC Standards, cat. no. PCS-201-030) with added “Fibroblast Growth Kit-Low serum” (ATCC/LGC Standards, cat. no. PCS-201-041) containing 2% FBS, L-glutamine, hydrocortisone, ascorbic acid, rh FGF beta, rh insulin. When 90% confluency was reached the fibroblasts were washed with sterile PBS (5 ml) and dissociated by addition of 0.25% solution of trypsin/EDTA (2 ml; 2 min; 37° C.). After that 5 ml of cultivation medium for fibroblasts was added and the cells were centrifuged (180×g, 7 min), the cell pellet was resuspended, and transferred in the amount needed into a new cultivation bottle with fresh medium. The same cell release procedure was applied when the cells were to be used in experiments. The cells were used in experiments between the 3rd and the 15th passage after defreeezing. Population doubling time of NHDF-Ad cell line was 33 h under the cultivation conditions used.
as §3, §4, §5

[7] = tested on: MOLT-4; test: CellTiter-Glo luminescent cell viability assay (ATP quantification), MOLT-4; assay type: cell-based; settings: acute lymfoblastic leukemia cells, 72 h treatment, viable cells by ATP luminescence
Protocol: as §1
(§6) Suspension cell line MOLT-4 is a permanent in vitro culture of acute lymfoblastic leukemia. Linie MOLT-4 cell line was cultivated in RPMI 1640 medium (Sigma-Aldrich, see above) with addition of 2 mmol glutamine (Invitrogen, see above), 10% fetal bovine serum (FBS, Sigma-Aldrich, see above), 100 IU/ml peniciline, 100 μg/ml streptomycine (Sigma-Aldrich, see above). Passaging was performed 2-3× a week. Population doubling time of MOLT-4 cell line was 25 h under the cultivation conditions used.
as §3, §4, §5

[8] = tested on: HL-60; test: CellTiter-Glo luminescent cell viability assay (ATP quantification), HL-60; assay type: cell-based; settings: acute promyelocytic leukemia cells, 72 h treatment, viable cells by ATP luminescence
Protocol: as §1
as §6, with “HL-60” for “MOLT-4”, “promyelocytic” for “lymfoblastic”, “HL-60” for “Linie MOLT-4”, “mmol·l^−1” for “mmol”, “23” for “25”
as §3, §4, §5

Q: Which melting point does the source give for `CN(C)c1ccc(/C=C/c2cccc3[n+]2CCCc2ccc4c(c2-3)-c2cccc(/C=C/c3ccc(N(C)C)cc3)[n+]2CCC4)cc1` (racemic) (as salt: methanesulfonate) [(rac)-41, (rac)-4,15-bis((E)-4-(dimethylamino)styryl)-6,7,8,11,12,13-hexahydro-dipyrido[1,2-a:1′,2′-a′]benzo[2,1-c:3,4-c′]bisazepinediium trifluoromethanesulfonate] here?
A: Its melting point is 318 to 322 °C.

Q: For `Cc1c(C)c2c(c3c1CC[n+]1ccc4ccccc4c1-3)-c1cccc(/C=C/c3cc4c5c(c3)CCCN5CCC4)[n+]1CC2` (racemic) [(rac)-12, (rac)-(E)-11-(2-(1,2,3,5,6,7-hexahydropyrido[3,2,1-ij]yl)vinyl)-6,7-dimethyl-4,5,8,9-tetrahydroisoquinolino[1,2-a]pyrido[1,2-k][2,9]phenanthroline-3,10-diium trifluoromethanesulfonate], which IC50 [1] is on record?
A: The IC50 was 51 to 150 µM.

Q: What about the IC50 ([2]; HUVEC, normal human endothelial cells from umbilical vein, viable cells by ATP luminescence, class symbols) of the same molecule?
A: The IC50 was 51 to 150 µM.

Q: And the IC50 ([3]; Homo sapiens, CCRF-CEM)?
A: The IC50 was 11 to 50 µM.

Q: What about the IC50 [4] of the same molecule?
A: Its IC50 is 11 to 50 µM.

Q: What about the IC50 ([5]; Homo sapiens, HeLa) of the same molecule?
A: Its IC50 is 11 to 50 µM.

Q: And the IC50 ([6]; Fibroblast, viable cells by ATP luminescence, class symbols)?
A: Its IC50 is 51 to 150 µM.

Q: And the IC50 ([7]; Homo sapiens, MOLT-4)?
A: Its IC50 is 51 to 150 µM.

Q: Which results are given for `C(=C\c1cc[n+]2c(c1)-c1c(ccc3c1-c1c4ccccc4cc[n+]1CCC3)CCC2)/c1cc2c3c(c1)CCCN3CCC2` (racemic) [(rac)-25, (rac)-(E)-19-(2-(1,2,3,5,6,7-hexahydropyrido[3,2,1-ij]quinolin-9-yl)vinyl)-8,9,10,13,14,15-hexahydropyrido[1′″,2′″:1″,2″]azepino[4″,3″:5′,6′]benzo[1′,2′:3,4]azepino[2,1-a]isoquinoline-7,16-diium trifluoromethanesulfonate]?
A: IC50 [1]: 51 to 150 µM; IC50 ([2]; HUVEC, normal human endothelial cells, numeric bound, values over 100 obtained by extrapolation of data measured at 0-100 μmol·l−1): > 150 µM; IC50 ([3]; Homo sapiens, CCRF-CEM): 11 to 50 µM; IC50 ([8]; Homo sapiens, HL-60): 11 to 50 µM; IC50 ([5]; Homo sapiens, HeLa): 11 to 50 µM; IC50 ([6]; Fibroblast, numeric bound, values over 100 obtained by extrapolation of data measured at 0-100 μmol·l−1): > 150 µM; IC50 ([7]; Homo sapiens, MOLT-4): 11 to 50 µM

Q: For `COc1ccc2cc(/C=C/c3cc[n+]4c(c3)-c3c(c(C)c(C)c5c3-c3c6ccccc6cc[n+]3CC5)CC4)ccc2c1` [(P)-7, (P)-(E)-13-(2-(6-methoxynaphthalene-2-yl)vinyl)-6,7-dimethyl-4,5,8,9-tetrahydroiso-quinolino[1,2-a]pyrido[1,2-k][2,9]phenanthroline-3,10-diium trifluoromethanesulfonate], which IC50 ([2]; normal human endothelial cells from umbilical vein, viable cells by ATP luminescence, class symbols) is on record?
A: Its IC50 is 51 to 150 µM.

Q: And the IC50 [3]?
A: Its IC50 is 11 to 50 µM.

Q: And the IC50 [8]?
A: The IC50 was 11 to 50 µM.

Q: And the IC50 [5]?
A: The IC50 was 11 to 50 µM.

Q: And the IC50 ([6]; viable cells by ATP luminescence, class symbols)?
A: Its IC50 is 51 to 150 µM.

Q: What about the IC50 [7] of the same molecule?
A: Its IC50 is 11 to 50 µM.
